Here are results for 20 molecules from patent US10017459B2, “β-substituted β-amino acids and analogs as chemotherapeutic agents and uses thereof” (Quadriga Biosciences, Inc., priority 2015, dated 2018).

Data set [1] relates to LLCPK cells conditionally expressing hLAT1. The data set is described as follows: cells. The conditions noted are these: 0.5 h, read-out: LC50, concentration of test compound at which the percent surviving cells was 50%.
The target in data set [2] is T1, hLAT1 (Homo sapiens, UniProt Q01650).
T1 construct: expressed in transfected cells; host or cells: LLCPK cells, tetracycline/doxycycline-inducible, boosted with sodium butyrate
T1 sequence (Q01650 whole entry, one chain of several): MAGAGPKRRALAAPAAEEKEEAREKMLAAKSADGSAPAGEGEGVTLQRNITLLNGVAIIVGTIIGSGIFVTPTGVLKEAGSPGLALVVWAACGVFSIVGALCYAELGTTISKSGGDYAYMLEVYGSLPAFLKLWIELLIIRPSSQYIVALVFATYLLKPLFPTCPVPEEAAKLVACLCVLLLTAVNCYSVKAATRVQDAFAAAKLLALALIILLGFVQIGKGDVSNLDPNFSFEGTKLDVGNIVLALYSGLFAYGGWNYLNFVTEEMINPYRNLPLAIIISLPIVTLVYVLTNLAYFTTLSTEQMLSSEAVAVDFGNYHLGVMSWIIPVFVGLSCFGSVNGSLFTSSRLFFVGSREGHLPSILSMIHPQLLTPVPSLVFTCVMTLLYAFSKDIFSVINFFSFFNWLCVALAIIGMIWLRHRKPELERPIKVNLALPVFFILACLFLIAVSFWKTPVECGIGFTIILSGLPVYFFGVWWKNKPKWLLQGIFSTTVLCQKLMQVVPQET
The data set is described as follows: LAT1 uptake inhibition assay, radiolabeled competition uptake with [3H]-Gabapentin. In kind it is cell-based.

Data set [3] has as its target T2, hLAT2 (Homo sapiens, UniProt Q9UHI5).
T2 construct: expressed in transfected cells; host or cells: KB or LLCPK cells, tetracycline/doxycycline-inducible
T2 sequence (Q9UHI5 1-535): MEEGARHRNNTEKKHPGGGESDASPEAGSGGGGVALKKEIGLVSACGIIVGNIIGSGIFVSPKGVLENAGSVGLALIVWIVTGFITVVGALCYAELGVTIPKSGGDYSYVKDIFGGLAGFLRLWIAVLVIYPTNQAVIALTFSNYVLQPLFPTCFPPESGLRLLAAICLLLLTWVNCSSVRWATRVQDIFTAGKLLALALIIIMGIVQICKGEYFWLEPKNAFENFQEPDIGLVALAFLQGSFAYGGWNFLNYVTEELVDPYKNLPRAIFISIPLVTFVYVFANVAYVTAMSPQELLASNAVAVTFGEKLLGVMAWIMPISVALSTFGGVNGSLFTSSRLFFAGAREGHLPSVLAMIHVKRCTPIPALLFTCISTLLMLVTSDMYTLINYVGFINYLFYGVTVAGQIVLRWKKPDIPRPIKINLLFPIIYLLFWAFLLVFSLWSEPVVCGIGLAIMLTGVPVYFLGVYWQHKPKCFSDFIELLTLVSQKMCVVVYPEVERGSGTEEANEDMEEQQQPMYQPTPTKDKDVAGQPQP
T2 sequence (P08195 1-630 isoform P08195-1 partner): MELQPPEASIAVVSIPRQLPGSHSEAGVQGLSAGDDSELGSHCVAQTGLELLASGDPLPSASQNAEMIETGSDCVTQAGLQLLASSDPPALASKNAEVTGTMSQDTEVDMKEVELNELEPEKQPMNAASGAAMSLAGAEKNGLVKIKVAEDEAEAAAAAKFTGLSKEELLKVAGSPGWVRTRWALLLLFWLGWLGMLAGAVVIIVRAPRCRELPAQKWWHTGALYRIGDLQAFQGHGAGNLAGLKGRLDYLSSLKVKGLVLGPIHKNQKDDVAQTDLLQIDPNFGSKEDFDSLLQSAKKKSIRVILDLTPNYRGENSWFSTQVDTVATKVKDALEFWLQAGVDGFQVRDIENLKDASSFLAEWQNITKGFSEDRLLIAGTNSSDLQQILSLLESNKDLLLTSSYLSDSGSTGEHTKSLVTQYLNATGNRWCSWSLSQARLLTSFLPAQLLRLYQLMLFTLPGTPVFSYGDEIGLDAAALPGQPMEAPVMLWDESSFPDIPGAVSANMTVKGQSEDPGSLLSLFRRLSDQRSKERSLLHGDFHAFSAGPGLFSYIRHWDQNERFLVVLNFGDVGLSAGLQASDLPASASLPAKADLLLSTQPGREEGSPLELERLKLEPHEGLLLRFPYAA
The data set is described as follows: LAT2 uptake inhibition assay, radiolabeled competition uptake with [3H]-leucine. In kind it is cell-based.

Data set [4] deals with U251. The data set is described as follows: cells. In kind it is cell-based. Conditions: Homo sapiens, U-251, read-out: IC50 (in vitro toxicity).
Data set [5] relates to LN229. As to the kind of experiment: cells. The format is cell-based. Conditions: Homo sapiens, LN-229, read-out: IC50 (in vitro toxicity).
In data set [6] the test system is 42MGBA. The data set is described as follows: cells. The format is cell-based. The conditions noted are these: read-out: IC50 (in vitro toxicity).
Data set [7] concerns DBRTG. As to the kind of experiment: cells. The format is cell-based. Conditions: read-out: IC50 (in vitro toxicity).
Data set [8] deals with G55. As to the kind of experiment: cells. The format is cell-based. Conditions: read-out: IC50 (in vitro toxicity).
Data set [9] concerns D283. The data set is described as follows: cells. In kind it is cell-based. Conditions: D283, read-out: IC50 (in vitro toxicity).
In data set [10] the test system is HCT116. As to the kind of experiment: In vitro cytotoxicity, HCT116. The format is cell-based. The conditions noted are these: Homo sapiens, HCT-116, read-out: IC50 (in vitro toxicity).
For data set [11], the system named is MCF7. The data set is described as follows: In vitro cytotoxicity, MCF7. The format is cell-based. The conditions noted are these: Homo sapiens, MCF7, read-out: IC50 (in vitro toxicity).
The subject of data set [12] is MDA-MB-231. As to the kind of experiment: cells. Conditions: Homo sapiens, MDA-MB-231, read-out: IC50 (in vitro toxicity). The format is cell-based.
The test system of data set [13] is MV411. The data set is described as follows: cells. The format is cell-based. Conditions: Homo sapiens, MV4-11, read-out: IC50 (in vitro toxicity).
For data set [14], the system named is Raji. The data set is described as follows: cells. In kind it is cell-based. The conditions noted are these: Homo sapiens, read-out: IC50 (in vitro toxicity).
In data set [15] the test system is PC3. As to the kind of experiment: cells. The format is cell-based. Conditions: Homo sapiens, PC-3, read-out: IC50 (in vitro toxicity).
Data set [16] has as its system U251 MG. As to the kind of experiment: Orthotopic glioblastoma study (Example 84). The format is in vivo, mouse. Conditions: at a dose of 10 mg/kg, IV. On the procedure: The efficacy of compounds provided by the present disclosure was evaluated using an orthotopic luciferase human glioblastoma model—U251 MG. Human glioblastoma cells were intracolonically injected (3×10^5 cells/3 μL) into athymic mice (female, 4-5 weeks-old, nu/un homozygous). Treatment began when the BLI reached a log-phase growth, at about 14 days after injection. Ten mice were assigned to each arm of the study. The mice were dosed with vehicle (IP, once weekly for 4 weeks), compound (5) (5 mg/kg, IV once weekly for 4 weeks), compound (5) (10 mg/kg, IV once weekly for 4 weeks), compound (40) (10 mg/kg, IV once weekly for 4 weeks), or compound (50) (20 mg/kg, IV single dose). The tumor volume was measured using bioluminescence imaging.

Data set [17] relates to Human prostate cancer PC3 cells. The conditions noted are these: mouse, in vivo.
Setting [18] is: LAT1-expressing cells, increasing concentration of test compound, read-out: IC50, concentration of test compound at which the [3H]-GP was inhibited by 50%.
The mark [19] stands for this setting: KB cells, read-out: IC50, concentration of test compound at which the [3H]-Leu was inhibited by 50%.

SMILES strings stand for the structures. pIC50: −log10 of the molar value. Like-named read-outs stand apart in the source and are kept apart here. Where only a bound is given, the exact number is not on record here.

In the case of `Cc1ccc(N(CCCl)CCCl)cc1CC(N)CC(=O)O` (racemic) [Compound 3, 3-Amino-4-[5-[bis(2-chloroethyl)amino]-2-methyl-phenyl]butanoic Acid], the CC50 in data set [1] was less than 1 µM.
On to `Cc1ccc(C(=O)N[C@@H](CC(C)C)C(=O)C2(C)CO2)cc1C[C@H](N)CC(=O)O` (stereo in doubt) [Compound 63, (3S)-3-amino-4-[2-methyl-5-[[(1S)-3-methyl-1-[(2R)-2-methyloxirane-2-carbonyl]butyl]carbamoyl]phenyl]butanoic acid], for which the pIC50 in [2] (setting [18]) and in data set [3] (setting [19]) was greater than 4.00 throughout.
The molecule `Cc1ccc(N(CCBr)CCOS(C)(=O)=O)cc1C[C@H](N)CC(=O)O` [Compound 20, (3S)-3-Amino-4-[5-(2-bromoethyl(2-methylsulfonyloxyethyl)amino)-2-methyl-phenyl]butanoic Acid] had a pIC50 in data set [3] greater than 4.00.
Molecule `Cc1ccc(N(CCCl)CCCl)cc1NC(=O)[C@H](N)CC(=O)O` [Compound 22, (3R)-3-Amino-4-[[5-[bis(2-chloroethyl)amino]-2-methyl-phenyl]amino]-4-oxo-butanoic Acid] gave a pIC50 in data set [3] greater than 4.00. Moreover, the CC50 in [1] was less than 1 µM.
Regarding `Cc1cc(N(CCCl)CCCl)ccc1OC[C@H](N)CC(=O)O` [Compound 27, (3R)-3-Amino-4-[4-[bis(2-chloroethyl)amino]-2-methyl-phenoxy]butanoic Acid], the CC50 in [1] was less than 1 µM.
Take `Cc1ccc(OC(=O)N(CCCl)CCCl)cc1C[C@H](N)CC(=O)O` [Compound 29, (3S)-3-Amino-4-[5-[bis(2-chloroethyl)carbamoyloxy]-2-methyl-phenyl]butanoic Acid]: the pIC50 in [2] is greater than 4.00.
The molecule `Cc1ccc(COC(=O)N(CCCl)CCCl)cc1C[C@H](N)CC(=O)O` [Compound 30, (3S)-3-Amino-4-[5-[bis(2-chloroethyl)carbamoyloxymethyl]-2-methyl-phenyl]butanoic Acid] gave a pIC50 in [2] greater than 4.00.
On to `Cc1ccc(CON(CCCl)CCCl)cc1C[C@H](N)CC(=O)O` [Compound 32, (3S)-3-Amino-4-[5-[bis(2-chloroethyl)aminooxymethyl]-2-methyl-phenyl]butanoic Acid], for which the pIC50 in data set [2] and in [3] was greater than 4.00 in each case.
On to `CCc1ccc(N(CCCl)CCCl)cc1C[C@H](N)CC(=O)O` [Compound 40, (3S)-3-amino-4-[5-[bis(2-chloroethyl)amino]-2-ethyl-phenyl]butanoic acid], for which the pIC50 in data set [2], in data set [3], in data set [4], in data set [5], in [6] and in [7] was greater than 4.00 each time. In addition, the pIC50 in data set [8], in data set [9], in [10], in [11], in data set [12] and in data set [13] was greater than 4.00 throughout. Besides, the pIC50 in data set [14] and in data set [15] was greater than 4.00 throughout. Further, the “glioblastoma tumor growth (bioluminescence imaging)” value in [16] is “suppressed glioblastoma tumor growth”. In data set [1], the CC50 was less than 1 µM. Besides, in [17], the body weight result was “maintained weight”. The myelosuppression entry in [17] is recorded as “not dectected”. Besides, the tumor growth suppression entry in [17] is given as “dose-dependent tumor growth suppression”.
Take `CCOc1ccc(N(CCCl)CCCl)cc1C[C@H](N)CC(=O)O` [Compound 42, (3S)-3-amino-4-[5-[bis(2-chloroethyl)amino]-2-ethoxy-phenyl]butanoic acid]: the pIC50 in [2] and in data set [3] was greater than 4.00 throughout. Further, in data set [1], the CC50 is less than 1 µM.
`CC(C)Oc1ccc(N(CCCl)CCCl)cc1C[C@H](N)CC(=O)O` [Compound 43, (3S)-3-amino-4-[5-[bis(2-chloroethyl)amino]-2-isopropoxy-phenyl]butanoic acid]: the pIC50 in [2] and in data set [3] was greater than 4.00 each time. The CC50 in data set [1] is less than 1 µM.
Regarding `N[C@H](CC(=O)O)Cc1cc(CON(CCCl)CCCl)ccc1[N+](=O)[O-]` [Compound 45, (3S)-3-amino-4-[5-[bis(2-chloroethyl)aminooxymethyl]-2-nitro-phenyl]butanoic acid], the pIC50 in data set [2] and in data set [3] was greater than 4.00 in each case.
Regarding `N[C@H](CC(=O)O)Cc1cc(CO)ccc1N(CCCl)CCCl` [Compound 52, (3S)-3-amino-4-[2-[bis(2-chloroethyl)amino]-5-(hydroxymethyl)phenyl]butanoic acid], the pIC50 in [3] was greater than 4.00. Further, in data set [1], the CC50 was less than 1 µM.
In the same order, the values of `N[C@H](CC(=O)O)Cc1cc(N(CCCl)CCCl)ccc1N(CCCl)CCCl` [Compound 53, (3S)-3-amino-4-[2,5-bis[bis(2-chloroethyl)amino]phenyl]butanoic acid] are greater than 4.00 and less than 1 µM.
Regarding `Cc1ccc(NCCCl)cc1C[C@H](N)CC(=O)O` [Compound 54, (3S)-3-amino-4-[5-(2-chloroethylamino]-2-methyl-phenyl]butanoic acid], in data set [3], the pIC50 is greater than 4.00.
Consider `Cc1ccc(CBr)cc1C[C@H](N)CC(=O)O` [Compound 57, (3S)-3-amino-4-[5-(bromomethyl)-2-methyl-phenyl]butanoic acid], for which the pIC50 in data set [2] (setting [18]) and in data set [3] (setting [19]) was greater than 4.00 each time.
On to `Cc1ccc(N(CCO)CCCl)cc1C[C@H](N)CC(=O)O` [Compound 58, (3S)-3-amino-4-[5-(2-chloroethyl(2-hydroxyethyl)amino)-2-methyl-phenyl]butanoic acid], for which the pIC50 in data set [2] is greater than 4.00.
For `COc1ccc(N(CCO)CCCl)cc1C[C@H](N)CC(=O)O` [Compound 60, (3S)-3-amino-4-[5-(2-chloroethyl (2-hydroxyethyl)amino)-2-methoxy-phenyl]butanoic acid], the pIC50 in [2] and in [3] was greater than 4.00 in each case.
For the molecule `N[C@@H](COc1cccc(N(CCCl)CCCl)c1)CC(=O)O` [Compound 68, (3R)-3-amino-4-[3-[bis(2-chloroethyl)amino]phenoxy]butanoic acid], the pIC50 in [2] is greater than 4.00.
Still for that read-out and setting: the figure for `N[C@@H](COc1ccc(N(CCCl)CCCl)cc1)CC(=O)O` [Compound 69, (3R)-3-amino-4-[4-[bis(2-chloroethyl)amino]phenoxy]butanoic acid] is greater than 4.00.
